In ChEMBL document CHEMBL5104133, “Sortase A-mediated cyclization of novel polycyclic RGD peptides for ανβ3 integrin targeting” (Bioorg Med Chem Lett, 2022):

Assays:
[1] = species: Homo sapiens; test: Selectivity ratio of IC50 for alphavbeta5 integrin receptor-mediated cell adhesion to vitronectin in human HT-29 cells to IC50 for alphavbeta3 integrin receptor-mediated cell adhesion to fibrinogen in human HEK293 cells; type: cell-based
[2] = target: T1, Integrin alpha-V/beta-3 (Homo sapiens, UniProt P05106+P06756); test: Inhibition of alphavbeta3 integrin receptor-mediated cell adhesion to fibrinogen in human SK-OV-3 cells […] integrin receptor; type: cell-based
T1 sequence (P05106 27-788 limits assumed): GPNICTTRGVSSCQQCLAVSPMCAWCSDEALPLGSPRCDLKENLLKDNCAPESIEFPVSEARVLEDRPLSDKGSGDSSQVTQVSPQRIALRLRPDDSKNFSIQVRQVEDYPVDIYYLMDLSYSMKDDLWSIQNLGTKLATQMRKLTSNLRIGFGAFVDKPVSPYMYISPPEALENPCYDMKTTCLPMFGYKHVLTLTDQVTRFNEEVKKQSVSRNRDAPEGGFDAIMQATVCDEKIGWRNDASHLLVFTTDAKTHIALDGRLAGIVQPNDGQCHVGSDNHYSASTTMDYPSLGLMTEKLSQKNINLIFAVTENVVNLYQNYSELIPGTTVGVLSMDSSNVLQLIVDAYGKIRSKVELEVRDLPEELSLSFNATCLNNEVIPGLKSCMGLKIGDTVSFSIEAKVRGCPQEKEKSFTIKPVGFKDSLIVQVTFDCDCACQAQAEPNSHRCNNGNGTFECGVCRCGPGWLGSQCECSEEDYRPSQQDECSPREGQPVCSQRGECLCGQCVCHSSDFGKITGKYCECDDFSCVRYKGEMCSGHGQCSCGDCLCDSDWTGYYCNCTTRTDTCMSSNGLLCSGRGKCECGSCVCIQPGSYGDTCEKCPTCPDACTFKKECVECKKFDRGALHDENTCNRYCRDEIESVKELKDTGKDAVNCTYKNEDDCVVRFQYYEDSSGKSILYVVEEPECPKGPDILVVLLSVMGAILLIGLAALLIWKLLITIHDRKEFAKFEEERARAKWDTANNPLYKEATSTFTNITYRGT
T1 sequence (P06756 31-889 limits assumed): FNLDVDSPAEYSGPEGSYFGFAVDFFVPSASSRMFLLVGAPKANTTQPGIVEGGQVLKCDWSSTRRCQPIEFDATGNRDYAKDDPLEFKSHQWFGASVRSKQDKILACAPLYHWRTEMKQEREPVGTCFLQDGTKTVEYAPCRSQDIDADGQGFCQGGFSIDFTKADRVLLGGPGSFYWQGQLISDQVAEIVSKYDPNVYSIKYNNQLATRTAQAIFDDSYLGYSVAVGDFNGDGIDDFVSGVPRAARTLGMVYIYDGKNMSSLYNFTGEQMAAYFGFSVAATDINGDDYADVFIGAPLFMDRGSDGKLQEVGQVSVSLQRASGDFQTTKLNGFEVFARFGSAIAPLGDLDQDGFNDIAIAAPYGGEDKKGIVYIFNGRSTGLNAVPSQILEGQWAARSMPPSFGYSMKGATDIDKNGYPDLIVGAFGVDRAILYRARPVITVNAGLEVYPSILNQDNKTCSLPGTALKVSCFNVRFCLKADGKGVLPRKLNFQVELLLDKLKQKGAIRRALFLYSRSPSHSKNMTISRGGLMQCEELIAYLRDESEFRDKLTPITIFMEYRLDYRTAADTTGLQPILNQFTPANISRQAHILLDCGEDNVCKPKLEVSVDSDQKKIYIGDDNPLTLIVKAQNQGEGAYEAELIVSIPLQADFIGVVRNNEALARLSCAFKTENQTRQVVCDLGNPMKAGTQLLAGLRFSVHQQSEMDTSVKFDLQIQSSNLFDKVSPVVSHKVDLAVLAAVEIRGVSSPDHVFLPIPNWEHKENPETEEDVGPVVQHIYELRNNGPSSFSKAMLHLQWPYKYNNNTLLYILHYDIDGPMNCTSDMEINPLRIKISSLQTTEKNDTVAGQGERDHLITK
T1 sequence (P06756 891-1048 limits assumed): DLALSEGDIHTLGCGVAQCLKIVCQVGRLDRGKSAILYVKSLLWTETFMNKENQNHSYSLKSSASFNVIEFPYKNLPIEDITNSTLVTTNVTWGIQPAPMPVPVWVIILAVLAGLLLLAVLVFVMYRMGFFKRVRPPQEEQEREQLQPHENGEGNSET

[3] = target: Integrin alpha-IIb/beta-3 (Homo sapiens, UniProt P05106+P08514); test: Inhibition of alpha2bbeta3 integrin receptor expressed on human surface of platelets; type: cell-based, Platelet
Integrin alpha-IIb/beta-3, sequence (P05106 27-788 limits assumed): as the sequence (P05106 27-788 limits assumed) above
Integrin alpha-IIb/beta-3, sequence (P08514 32-887 limits assumed): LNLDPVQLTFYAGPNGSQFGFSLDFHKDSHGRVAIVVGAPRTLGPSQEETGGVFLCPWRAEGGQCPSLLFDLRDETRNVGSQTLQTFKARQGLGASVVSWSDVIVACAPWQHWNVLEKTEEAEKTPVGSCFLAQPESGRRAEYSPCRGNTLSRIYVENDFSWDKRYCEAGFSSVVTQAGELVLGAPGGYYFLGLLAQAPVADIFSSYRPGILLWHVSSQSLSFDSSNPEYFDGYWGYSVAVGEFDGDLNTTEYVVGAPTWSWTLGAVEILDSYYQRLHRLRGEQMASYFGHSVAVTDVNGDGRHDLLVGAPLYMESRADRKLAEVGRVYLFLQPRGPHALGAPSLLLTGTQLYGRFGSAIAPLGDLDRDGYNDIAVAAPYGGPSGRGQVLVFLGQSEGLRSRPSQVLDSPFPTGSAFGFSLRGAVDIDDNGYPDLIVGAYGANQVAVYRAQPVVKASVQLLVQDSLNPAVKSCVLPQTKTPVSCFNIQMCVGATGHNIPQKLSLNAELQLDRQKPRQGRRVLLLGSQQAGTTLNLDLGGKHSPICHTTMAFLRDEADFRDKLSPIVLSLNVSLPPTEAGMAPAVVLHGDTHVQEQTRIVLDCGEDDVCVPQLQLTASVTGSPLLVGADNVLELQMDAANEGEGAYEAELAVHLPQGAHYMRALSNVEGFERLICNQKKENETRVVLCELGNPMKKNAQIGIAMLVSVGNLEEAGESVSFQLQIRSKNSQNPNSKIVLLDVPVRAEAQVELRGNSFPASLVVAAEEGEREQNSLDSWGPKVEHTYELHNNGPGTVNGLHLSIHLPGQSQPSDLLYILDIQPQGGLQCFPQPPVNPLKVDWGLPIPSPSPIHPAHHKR
Integrin alpha-IIb/beta-3, sequence (P08514 891-1039 limits assumed): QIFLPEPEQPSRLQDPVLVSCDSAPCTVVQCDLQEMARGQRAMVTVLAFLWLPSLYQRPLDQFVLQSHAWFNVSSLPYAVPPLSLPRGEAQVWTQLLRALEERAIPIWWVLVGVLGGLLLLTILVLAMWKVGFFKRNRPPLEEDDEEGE

[4] = target: Integrin alpha-5/beta-1 (Homo sapiens, UniProt P05556+P08648); test: Inhibition of alpha5beta1 integrin receptor expressed on human surface of adipose tissue-derived stem cells; type: cell-based, Adipose tissue derived mesenchymal stem cell
[5] = target: T1, Integrin alpha-V/beta-3; test: Inhibition of alphavbeta3 integrin receptor-mediated cell adhesion to fibrinogen in human HEK293 cells; type: cell-based
[6] = target: Integrin alpha-V/beta-5 (Homo sapiens, UniProt P06756+P18084); test: Inhibition of alphavbeta5 integrin receptor-mediated cell adhesion to vitronectin in human HT-29 cells; type: cell-based
Integrin alpha-V/beta-5, sequence (P06756 31-889 limits assumed): as the sequence (P06756 31-889 limits assumed) above
Integrin alpha-V/beta-5, sequence (P06756 891-1048 limits assumed): as the sequence (P06756 891-1048 limits assumed) above
Integrin alpha-V/beta-5, sequence (P18084 24-799 limits assumed): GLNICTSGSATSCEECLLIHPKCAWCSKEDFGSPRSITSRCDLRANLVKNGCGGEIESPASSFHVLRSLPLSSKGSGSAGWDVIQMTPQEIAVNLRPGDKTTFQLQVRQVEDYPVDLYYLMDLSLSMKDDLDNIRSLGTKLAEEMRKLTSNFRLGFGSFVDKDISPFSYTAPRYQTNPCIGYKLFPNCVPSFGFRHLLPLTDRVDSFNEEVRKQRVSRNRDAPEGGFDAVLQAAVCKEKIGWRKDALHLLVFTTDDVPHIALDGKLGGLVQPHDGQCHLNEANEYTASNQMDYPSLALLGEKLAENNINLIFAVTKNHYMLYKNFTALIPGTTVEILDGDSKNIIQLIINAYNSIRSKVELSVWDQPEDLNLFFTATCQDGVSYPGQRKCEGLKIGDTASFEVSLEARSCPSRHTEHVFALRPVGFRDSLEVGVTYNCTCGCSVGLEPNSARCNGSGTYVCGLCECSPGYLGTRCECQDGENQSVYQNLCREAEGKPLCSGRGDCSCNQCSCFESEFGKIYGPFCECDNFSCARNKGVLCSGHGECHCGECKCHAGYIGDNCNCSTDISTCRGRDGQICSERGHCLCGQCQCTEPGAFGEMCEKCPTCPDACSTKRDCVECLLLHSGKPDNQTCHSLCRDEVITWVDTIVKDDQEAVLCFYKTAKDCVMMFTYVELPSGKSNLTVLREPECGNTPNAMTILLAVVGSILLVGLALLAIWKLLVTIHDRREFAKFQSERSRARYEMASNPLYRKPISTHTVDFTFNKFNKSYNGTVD

SMILES | Ratio IC50 [1] | IC50 [2] [µM] | IC50 [3] [µM] | IC50 [4] [µM] | IC50 [5] [µM] | IC50 [6] [µM]
CC(C)C[C@@H]1NC(=O)[C@@H]2CSSC[C@@H]3NC(=O)[C@H](CSSC[C@H](NC(=O)[C@H](C(C)C)NC(=O)[C@@H](Cc4ccccc4)NC(=O)[C@H](CC(=O)O)NC(=O)CNC(=O)[C@H](CCCNC(=N)N)NC3=O)C(=O)N[C@@H](CCCNC(=N)N)C(=O)NCC(=O)N[C@@H](CC(=O)O)C(=O)N[C@H](Cc3ccccc3)C(=O)N[C@@H](C(C)C)C(=O)N2)NC(=O)CNC(=O)CNC(=O)[C@H]([C@@H](C)O)NC(=O)[C@H](CCCCN)NC(=O)[C@@H]2CCCN2C1=O | 0.041 | 34 | > 1 | 0.154 | 8.43 | 208
CC(C)C[C@@H]1NC(=O)[C@@H]2CSCc3cc4cc(c3)CSC[C@H](NC(=O)[C@H](C(C)C)NC(=O)[C@@H](Cc3ccccc3)NC(=O)[C@H](CC(=O)O)NC(=O)CNC(=O)[C@H](CCCNC(=N)N)NC(=O)[C@H](CSC4)NC(=O)CNC(=O)CNC(=O)CNC(=O)[C@H]([C@H](C)O)NC(=O)[C@H](CCCCN)NC(=O)[C@@H]3CCCN3C1=O)C(=O)N[C@@H](CCCNC(=N)N)C(=O)NCC(=O)N[C@H](CC(=O)O)C(=O)N[C@H](Cc1ccccc1)C(=O)N[C@H](C(C)C)C(=O)N2 | 0.006 | 25.1 | > 1 | 0.154 | 0.2 | 30.2
